From patent US20230106174A1, “RAS INHIBITORS” (Revolution Medicines, Inc., priority 2021, published 2023) come the findings set out here.

Broadly, the IC50 is the concentration needed to halve the response being measured. Low readings indicate higher potency, high ones lower potency.

Read-outs that look alike come from different tables or passages of the source.

In one data set the target is T1, K-Ras G12C (Homo sapiens, UniProt P01116+P62937, G12C).
T1 construct: endogenous in cells; host or cells: NCI-H358
Put plainly: pERK potency assay in NCI-H358 cells (AlphaLISA SureFire or In-Cell Western). Particulars: 4 hours incubation. The class given is cell-based. How it is done:
The purpose of this assay was to measure the ability of test compounds to inhibit K-Ras in cells. […] This procedure measures a decrease in cellular pERK in response to test compounds. The procedure described below in NCI-H358 cells is applicable to K-Ras G12C. […]
NCI-H358 cells were grown and maintained using media and procedures recommended by the ATCC. On the day prior to compound addition, cells were plated in 384-well cell culture plates (40 μl/well) and grown overnight in a 37° C., 5% CO2 incubator. Test compounds were prepared in 10, 3-fold dilutions in DMSO, with a high concentration of 10 mM. On the day of assay, 40 nL of test compound was added to each well of cell culture plate using an Echo550 liquid handler (LabCyte®). Concentrations of test compound were tested in duplicate. After compound addition, cells were incubated 4 hours at 37° C., 5% CO2. Following incubation, culture medium was removed and cells were washed once with phosphate buffered saline.
In some experiments, cellular pERK level was determined using the AlphaLISA SureFire Ultra p-ERK1/2 Assay Kit (PerkinElmer). Cells were lysed in 25 μL lysis buffer, with shaking at 600 RPM at room temperature. Lysate (10 μL) was transferred to a 384-well Opti-plate (PerkinElmer) and 5 μL acceptor mix was added. After a 2-hour incubation in the dark, 5 μL donor mix was added, the plate was sealed, and incubated 2 hours at room temperature. Signal was read on an Envision plate reader (PerkinElmer) using standard AlphaLISA settings. Analysis of raw data was carried out in Excel (Microsoft) and Prism (GraphPad). Signal was plotted vs. the decadal logarithm of compound concentration, and IC50 was determined by fitting a 4-parameter sigmoidal concentration response model.
In other experiments, cellular pERK was determined by In-Cell Western. Following compound treatment, cells were washed twice with 200 μL tris buffered saline (TBS) and fixed for 15 minutes with 150 μL 4% paraformaldehyde in TBS. Fixed cells were washed 4 times for 5 minutes with TBS containing 0.1% Triton X-100 (TBST) and then blocked with 100 μL Odyssey blocking buffer (LI-COR) for 60 minutes at room temperature. […] Cells were washed 4 times for 5 minutes with TBST. Secondary antibody (IR-800CW rabbit, LI-COR, diluted 1:800) and DNA stain DRAQ5 (LI-COR, diluted 1:2000) were added and incubated 1-2 hours at room temperature. Cells were washed 4 times for 5 minutes with TBST. Plates were scanned on a Li—COR Odyssey CLx Imager. Analysis of raw data was carried out in Excel (Microsoft) and Prism (GraphPad). Signal was plotted vs. the decadal logarithm of compound concentration, and IC50 was determined by fitting a 4-parameter sigmoidal concentration response model.

A further data set has as its system NCI-H358 (K-Ras G12C). The experiment in a line: CellTiter-Glo cell viability assay, 5-day treatment, NCI-H358. The data set is classed as cell-based. As to conditions: Homo sapiens, NCI-H358, 120 h. An excerpt:
Determination of Cell Viability in RAS Mutant Cancer Cell Lines
Protocol: CellTiter-Glo® Cell Viability Assay
Note—The following protocol describes a procedure for monitoring cell viability of K-Ras mutant cancer cell lines in response to a compound of the invention. Other RAS isoforms may be employed, though the number of cells to be seeded will vary based on cell line used.
The purpose of this cellular assay was to determine the effects of test compounds on the proliferation of three human cancer cell lines (NCI-H358 (K-Ras G12C), AsPC-1 (K-Ras G12D), and Capan-1 (K-Ras G12V)) over a 5-day treatment period by quantifying the amount of ATP present at endpoint using the CellTiter-Glo® 2.0 Reagent (Promega).
Cells were seeded at 250 cells/well in 40 μL of growth medium in 384-well assay plates and incubated overnight in a humidified atmosphere of 5% CO2 at 37° C. On the day of the assay, 10 mM stock solutions of test compounds were first diluted into 3 mM solutions with 100% DMSO. Well-mixed compound solutions (15 μL) were transferred to the next wells containing 30 μL of 100% DMSO, and repeated until a 9-concentration 3-fold serial dilution was made (starting assay concentration of 10 μM). Test compounds (132.5 nL) were directly dispensed into the assay plates containing cells. The plates were shaken for 15 seconds at 300 rpm, centrifuged, and incubated in a humidified atmosphere of 5% CO2 at 37° C. for 5 days. On day 5, assay plates and their contents were equilibrated to room temperature for approximately 30 minutes. CellTiter-Glo® 2.0 Reagent (25 μL) was added, and plate contents were mixed for 2 minutes on an orbital shaker before incubation at room temperature for 10 minutes. Luminescence was measured using the PerkinElmer Enspire. Data were normalized by the following: (Sample signal/Avg. DMSO)*100. The data were fit using a four-parameter logistic fit.
(Cellular ATP, detected with luciferase, serves as a proxy for viable cell number.)

T1 sequence (P01116 1-188 isoform P01116-2 G12C): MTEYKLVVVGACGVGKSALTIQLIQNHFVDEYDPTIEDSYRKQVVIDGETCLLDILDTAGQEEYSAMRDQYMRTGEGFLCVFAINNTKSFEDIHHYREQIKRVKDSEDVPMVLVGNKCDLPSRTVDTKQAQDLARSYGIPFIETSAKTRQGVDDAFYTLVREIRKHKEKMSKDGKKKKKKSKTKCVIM
T1 sequence (P62937 whole entry): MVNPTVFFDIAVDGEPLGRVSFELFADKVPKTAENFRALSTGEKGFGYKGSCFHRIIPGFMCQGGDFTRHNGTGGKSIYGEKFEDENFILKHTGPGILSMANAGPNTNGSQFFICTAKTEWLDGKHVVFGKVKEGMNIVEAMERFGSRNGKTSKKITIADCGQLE

In the case of `C=CC(=O)N1CCN(CC)C2(CCN(C(=O)N(C)[C@H](C(=O)N[C@H]3C[C@H]4CN(CCO4)c4ccc5c(c4)c(c(-c4cccnc4[C@H](C)OC)n5CC)CC(C)(C)COC(=O)[C@@H]4CCCN(N4)C3=O)C(C)C)CC2)C1` (atropisomer, axis not shown) [Example A38], the IC50 on K-Ras G12C and with NCI-H358 (K-Ras G12C) was > 1000 nM throughout.

On to `CO[C@@H](C)c1ncccc1-c1c2c3cc(ccc3n1CC(F)(F)F)C1CCCN(C1)C[C@H](NC(=O)OC(C)(C)C)C(=O)N1CCC[C@H](N1)C(=O)OCC(C)(C)C2`, for which the ring closure, yield of all isomers (from CO[C@@H](C)c1ncccc1-c1c(CC(C)(C)CO)c2cc(C3CCCN(C[C@H](NC(=O)OC(C)(C)C)C(=O)N4CCC[C@@H](C(=O)O)N4)C3)ccc2n1CC(F)(F)F, ester bond, EDCI/HOBT/DIPEA, DCM, 6.2 mM, 25.0 °C) was 17%.

Turning to `C=CC(=O)N1CCOC2(CCN(C(=O)N(C)[C@H](C(=O)N[C@H]3C[C@@]4(C)CN(CCO4)c4ccc5c(c4)c(c(-c4cccnc4[C@H](C)OC)n5CC)CC(C)(C)COC(=O)[C@@H]4CCCN(N4)C3=O)C(C)C)CC2)C1` (atropisomer, axis not shown) [Example A130], the IC50 against K-Ras G12C was > 890 nM.

As for `C=CC(=O)N1CC2(CCN(C(=O)N(C)[C@H](C(=O)N[C@H]3C[C@H]4CN(CCO4)c4ccc5c(c4)c(c(-c4cccnc4[C@H](C)OC)n5CC)CC(C)(C)COC(=O)[C@@H]4CCCN(N4)C3=O)C(C)C)CC2)C1` (atropisomer, axis not shown) [Example A121], on K-Ras G12C, the IC50 is > 1000 nM.

For `C=CC(=O)N1CCOC2(C1)CN(C(=O)N(C)[C@H](C(=O)N[C@H]1C[C@H]3CN(CCO3)c3ccc4c(c3)c(c(-c3cccnc3[C@H](C)OC)n4CC)CC(C)(C)COC(=O)[C@@H]3CCCN(N3)C1=O)C(C)C)C2` (atropisomer, axis not shown) [Example A136], on K-Ras G12C, the IC50 was > 1000 nM.

Consider `C=CC(=O)N1CCOC2(CCN(C(=O)N(C)[C@H](C(=O)N[C@H]3Cc4cncc(n4)-c4ccc5c(c4)c(c(-c4cccnc4[C@H](C)OC)n5CC)CC(C)(C)COC(=O)[C@@H]4CCCN(N4)C3=O)C(C)C)CC2)C1` (atropisomer, axis not shown) [Example A36], for which, on K-Ras G12C, the IC50 is > 1000 nM.

With `C=CC(=O)N1COC2(CCN(C(=O)N(C)[C@H](C(=O)N[C@H]3CC4=NC=C(O4)c4ccc5c(c4)c(c(-c4cccnc4[C@H](C)OC)n5CC)CC(C)(C)COC(=O)[C@@H]4CCCN(N4)C3=O)C(C)C)CC2)C1` (atropisomer, axis not shown) [Example A37], at K-Ras G12C, the IC50 was > 1000 nM.

For `CO[C@@H](C)c1ncccc1-c1c2c3cc(ccc3n1CC(F)(F)F)C1CN(C1)C[C@H](NC(=O)OC(C)(C)C)C(=O)N1CCC[C@H](N1)C(=O)OCC(C)(C)C2`, the ring closure, yield of all isomers (from CO[C@@H](C)c1ncccc1-c1c(CC(C)(C)CO)c2cc(C3CN(C[C@H](NC(=O)OC(C)(C)C)C(=O)N4CCC[C@@H](C(=O)O)N4)C3)ccc2n1CC(F)(F)F, ester bond, EDCI/HOBt/DIPEA, DCM, 6.45 mM, 30.0 °C, 16.0 h) worked out at 37%.

`C=CCOC(=O)N[C@H]1Cc2nc(no2)-c2ccc3c(c2)c(c(-c2cccnc2[C@H](C)OC)n3CC)CC(C)(C)COC(=O)[C@@H]2CCCN(N2)C1=O` had a ring closure, yield of all isomers (from C=CCOC(=O)NC(Cc1nc(-c2ccc3c(c2)c(CC(C)(C)COC(=O)[C@@H]2CCCNN2)c(-c2cccnc2[C@H](C)OC)n3CC)no1)C(=O)O, amide bond, HATU/DIPEA, DCM, 139.0 mM, 25.0 °C, 16.0 h) of 33%.

`CO[C@@H](C)c1ncccc1-c1c2c3cc(ccc3n1CC(F)(F)F)C1CCN(C1)C[C@H](NC(=O)OC(C)(C)C)C(=O)N1CCC[C@H](N1)C(=O)OCC(C)(C)C2`: where the note is “from CO[C@@H](C)c1ncccc1-c1c(CC(C)(C)CO)c2cc(C3CCN(C[C@H](NC(=O)OC(C)(C)C)C(=O)N4CCC[C@@H](C(=O)O)N4)C3)ccc2n1CC(F)(F)F, ester bond, EDCI/HOBt/DIPEA, DCM, 6.97 mM, 25.0 °C, 16.0 h”, the ring closure, yield of all isomers stood at 21%.

Take `CCn1c(-c2cc(N3CCN4CCCC[C@@H]4C3)cnc2[C@H](C)OC)c2c3cc(ccc31)-c1cccc(c1)C[C@H](NC(=O)OC(C)(C)C)C(=O)N1CCC[C@H](N1)C(=O)OCC(C)(C)C2`: the ring closure, yield of all isomers (from CCn1c(-c2cc(N3CCN4CCCC[C@@H]4C3)cnc2[C@H](C)OC)c(CC(C)(C)CO)c2cc(-c3cccc(C[C@H](NC(=O)OC(C)(C)C)C(=O)N4CCC[C@@H](C(=O)O)N4)c3)ccc21, ester bond, EDCI/HOBt/DIPEA, DCM, 11.3 mM, 25.0 °C, 16.0 h) was 62%.

With `C=CC(=O)N1CCN(C)C2(CCN(C(=O)N(C)[C@H](C(=O)N[C@H]3C[C@H]4CN(CCO4)c4ccc5c(c4)c(c(-c4cccnc4[C@H](C)OC)n5CC)CC(C)(C)COC(=O)[C@@H]4CCCN(N4)C3=O)C(C)C)CC2)C1` (atropisomer, axis not shown) [Example A189], at K-Ras G12C, the IC50 is > 1000 nM.

For the molecule `C=CC(=O)N1CCOC2(CCN(C(=O)N(C)[C@H](C(=O)N[C@H]3Cc4cncc(c4)-c4ccc5c(c4)c(c(-c4cccnc4[C@H](C)OC)n5CC)CC(C)(C)COC(=O)[C@@H]4CCCN(N4)C3=O)C(C)C)CC2)C1` (atropisomer, axis not shown) [Example A124], the IC50 at K-Ras G12C is > 1000 nM.

`CCn1c(-c2cccnc2[C@H](C)OC)c2c3cc(ccc31)-c1nc(no1)C[C@H](NC(=O)OC(C)(C)C)C(=O)N1CCC[C@H](N1)C(=O)OCC(C)(C)C2` came in with a ring closure, yield of all isomers (from CCn1c(-c2cccnc2[C@H](C)OC)c(CC(C)(C)CO)c2cc(-c3nc(C[C@H](NC(=O)OC(C)(C)C)C(=O)N4CCC[C@@H](C(=O)O)N4)no3)ccc21, ester bond, EDCI/HOBT/DIPEA, DCM, 6.8 mM, 25.0 °C, 16.0 h) of 18%.

The molecule `CCn1c(-c2cc(N3CCN(C(=O)OCc4ccccc4)CC3)cnc2[C@H](C)OC)c2c3cc(ccc31)-c1csc(n1)C[C@H](NC(=O)OC(C)(C)C)C(=O)N1CCC[C@H](N1)C(=O)OCC(C)(C)C2` displayed a ring closure, yield of all isomers (from CCn1c(-c2cc(N3CCN(C(=O)OCc4ccccc4)CC3)cnc2[C@H](C)OC)c(CC(C)(C)CO)c2cc(-c3csc(C[C@H](NC(=O)OC(C)(C)C)C(=O)N4CCC[C@@H](C(=O)O)N4)n3)ccc21, ester bond, EDCI/HOBt/DIEA, MeCN, 10.3 mM, 25.0 °C, 16.0 h) of 54.8%.

Take `CCn1c(-c2cccnc2[C@H](C)OC)c2c3cc(ccc31)-c1cc(C(F)F)cc(n1)C[C@H](NC(=O)[C@H](C(C)C)N(C)C(=O)N1CCC3(CCN(C(=O)/C=C/CN(C)C)C3)CC1)C(=O)N1CCC[C@H](N1)C(=O)OCC(C)(C)C2` (atropisomer, axis not shown) [Example A39]: the IC50 in the data set on NCI-H358 (K-Ras G12C) is > 1000 nM.

In turn, `CO[C@@H](C)c1ncccc1-c1c2c3cc(ccc3n1CC(F)(F)F)-c1coc(n1)C[C@H](NC(=O)OCc1ccccc1)C(=O)N1CCC[C@H](N1)C(=O)OCC(C)(C)C2` came in with a ring closure, yield of all isomers (from CO[C@@H](C)c1ncccc1-c1c(CC(C)(C)COC(=O)[C@@H]2CCCNN2)c2cc(-c3coc(C[C@H](NC(=O)OCc4ccccc4)C(=O)O)n3)ccc2n1CC(F)(F)F, amide bond, EDCI/HOBt/DIPEA, DCM, 6.06 mM, 25.0 °C, 16.0 h) of 21%.
